Measurements taken from patent publication US11066403B2, “Solid form of azetidine derivative and preparation method therefor and use thereof” (SICHUAN KELUN-BIOTECH BIOPHARMACEUTICAL CO., LTD., priority 2017, dated 2021).

Tests used:
[1] = Physicochemical stability (high temperature, high humidity, light; XRPD and HPLC); settings: XRPD
[2] = Cytotoxicity (MTS) in HEK293; assay type: cell-based; settings: HEK293 cells, human embryonic kidney cell, 40 h incubation
Experimental: (§1) The cells were plated at a concentration of 2×10^4 cells/well and incubated for 4 h at 37° C. in a 5% CO2 incubator. The crystalline form of the compound of Formula (I) of the present invention was added, and incubation was continued for 40 h. The incubation solution was removed, and a complete medium was added (100 μl/well) to each test well and incubated in the incubator for 0.5 to 1 h. Then, MTS solution was added (10 μl/well) thereto, and incubation was continued for 4 h in the incubator. The absorbance at 450 nm was measured, and the IC50 value was calculated.

[3] = Cytotoxicity (MTS) in N2a; assay type: cell-based; settings: mouse, N2a neuroblastoma cells, neuroblastoma cell, 40 h incubation
Experimental: as §1

[4] = molecular target: TYK2 (Homo sapiens, UniProt P29597); test: TYK2 enzymatic activity inhibition assay (HTRF KinEASE-TK); assay type: biochemical
Experimental: (§2) The crystalline form of the compound of Formula (I), an enzyme, a substrate and ATP were diluted to desired concentrations with the buffer in the HTRF® KinEASE™-TK kit (Cisbio). The former three agents were added into a multiple well plate, and incubated at room temperature after being mixed homogeneously. ATP was added to initiate the kinase reaction, and incubation at room temperature was performed. The test reagent in the kit was used to terminate the reaction, and incubation was continued at room temperature. After the incubation was completed, fluorescence signals at 620 nm and 665 nm were measured using a BMG PHERAstar FS microplate reader, and the half inhibitory concentration (IC50) values were calculated.

[5] = molecular target: T1, JAK3 (Homo sapiens, UniProt P52333); test: JAK3 enzymatic activity inhibition assay (HTRF KinEASE-TK); assay type: biochemical
T1 sequence (P52333 1-1124): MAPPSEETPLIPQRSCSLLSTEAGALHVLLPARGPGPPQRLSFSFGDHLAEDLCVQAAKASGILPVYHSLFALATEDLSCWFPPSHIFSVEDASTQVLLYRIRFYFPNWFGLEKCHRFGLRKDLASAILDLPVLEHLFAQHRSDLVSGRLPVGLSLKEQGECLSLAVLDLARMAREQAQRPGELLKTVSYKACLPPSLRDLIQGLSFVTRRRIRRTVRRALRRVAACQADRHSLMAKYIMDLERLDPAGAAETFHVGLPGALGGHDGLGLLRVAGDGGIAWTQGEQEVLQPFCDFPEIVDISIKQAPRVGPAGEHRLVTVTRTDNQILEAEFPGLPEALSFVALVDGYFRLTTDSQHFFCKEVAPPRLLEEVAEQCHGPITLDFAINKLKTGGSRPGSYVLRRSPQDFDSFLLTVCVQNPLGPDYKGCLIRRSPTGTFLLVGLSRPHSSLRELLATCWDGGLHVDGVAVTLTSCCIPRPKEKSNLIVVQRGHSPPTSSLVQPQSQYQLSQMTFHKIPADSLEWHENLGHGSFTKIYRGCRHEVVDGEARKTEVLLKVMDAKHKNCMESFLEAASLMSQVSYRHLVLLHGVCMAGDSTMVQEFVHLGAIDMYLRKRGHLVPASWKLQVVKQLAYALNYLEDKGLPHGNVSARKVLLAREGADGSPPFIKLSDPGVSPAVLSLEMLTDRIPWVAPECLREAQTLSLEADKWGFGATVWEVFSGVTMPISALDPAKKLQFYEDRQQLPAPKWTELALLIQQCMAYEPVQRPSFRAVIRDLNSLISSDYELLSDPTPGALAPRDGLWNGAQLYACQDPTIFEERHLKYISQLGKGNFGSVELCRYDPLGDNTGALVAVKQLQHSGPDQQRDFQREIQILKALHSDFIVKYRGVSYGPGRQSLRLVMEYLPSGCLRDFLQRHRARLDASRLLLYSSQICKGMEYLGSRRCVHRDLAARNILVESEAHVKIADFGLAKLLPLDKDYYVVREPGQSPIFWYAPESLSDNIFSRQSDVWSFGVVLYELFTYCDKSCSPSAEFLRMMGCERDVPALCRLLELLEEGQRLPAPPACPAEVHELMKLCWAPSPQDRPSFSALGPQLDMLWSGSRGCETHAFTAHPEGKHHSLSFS
Experimental: as §2

[6] = system: Collagen-Induced Arthritis (CIA) model; test: Efficacy in collagen-induced arthritis (CIA) model in rats; assay type: in vivo, rat; set-up: Mean pathological score, Joint inflammation (X ± SD) / Mean pathological score, Joint cartilage erosion (X ± SD) / Mean pathological score, Synovial hyperplasia/pannus (X ± SD): scale not given here; settings: for Mean pathological score, Joint cartilage erosion (X ± SD) / Mean pathological score, Joint inflammation (X ± SD) / Mean pathological score, Synovial hyperplasia/pannus (X ± SD): hind paw joints
Experimental: After female Lewis rats were immunized twice with bovine type II collagen to form a CIA model, the rats were randomly divided into 4 groups (the vehicle group, and the groups of the crystalline form of the compound of Formula (I) of the present invention (1 mg/kg, 3 mg/kg, 10 mg/kg), respectively), and unmodeled rats were taken as the normal group. The corresponding drugs were administered by gavage once a day for 14 days (D15-D28). The hind paw was scored for arthritis index during the administration (the results are shown in Table 5); and after the end of the experiment, the ankle joint was taken for pathologic analysis (the average pathological scores of the hind paw joints of the rats are shown in Table 6).

[7] = molecular target: T2, hERG potassium channel (Homo sapiens, UniProt Q12809); test: hERG test (Predictor hERG Fluorescence Polarization Assay Kit); assay type: binding
T2 construct: purchased Thermo Fisher
Experimental: The effects of the crystalline forms of the compound of Formula (I) on hERG potassium channel were determined using a biochemical hERG assay kit based on fluorescence polarization technology (Predictor™ hERG Fluorescence Polarization Assay Kit, Thermo Fisher) to assess the potential of the crystalline form of the compound of Formula (I) in inducing cardiac QT interval prolongation.

[8] = system: STAT3 phosphorylation in Hep3B cells; test: Effect on JAK/STAT signaling pathway in Hep3B cells (IL-6 induced p-STAT3, AlphaLISA); assay type: cell-based; settings: Homo sapiens, 0.5 h, IL-6 stimulation 30 min
Experimental: After incubating the crystalline form of the compound of Formula (I) of the present invention with Hep3B cells in a 37° C., 5% CO2 incubator for 15 min, […] IL-6 was added. Incubation was continued for 30 min, and the cells were lysed. The lysate was added to AlphaLISA SureFire Ultra p-STAT3 (Tyr705) assay kit (PerkinElmer), incubated at room temperature in dark, and the signals emitted by the receptor microbeads after energy absorption were measured, and the half inhibitory concentration (IC50) of inhibiting STAT3 phosphorylation was calculated.

[9] = Viscous fluidity test (bulk density, angle of repose); assay type: physicochemical; settings: for angle of repose: funnel method, tan α=H/R; for most apparent density (bulk density): without applying any external force
Experimental: A measuring container was filled with crystalline form B (1.97 g) of the compound of Formula (I), and the volume was determined to be 7.62 ml without applying any external force. The most apparent density (i.e., bulk density) was calculated to be 0.26 g/ml. The powder was slowly added into a funnel from above so that the material leaking from the bottom of the funnel formed a conical stack on the horizontal surface, and the diameter of the bottom of the cone (2R) and the height of the cone (H) were measured to be 3.59 cm and 1.79 cm, respectively. And the angle of repose was calculated to be 45 degrees according to the formula for calculating the angle of repose (tan α=H/R).
The most apparent density (i.e., bulk density) was calculated to be 0.43 g/ml. The powder was slowly added into a funnel from above so that the material leaking from the bottom of the funnel formed a conical stack on the horizontal surface, and the diameter of the bottom of the cone (2R) and the height of the cone were measured to be 2.91 cm and 1.46 cm, respectively. And the angle of repose was calculated to be 45 degrees according to the formula for calculating the angle of repose (tan α=H/R).

[10] = Cytotoxicity (MTS) in HK-2; assay type: cell-based; settings: HK-2 cells, human proximal tubular cell, 40 h incubation
Experimental: as §1

[11] = high humidity (92.5%) for 5 days
[12] = high temperature (60° C.) for 5 days
[13] = 1 mg/kg gavage once a day for 14 days
[14] = 3 mg/kg gavage once a day for 14 days
[15] = 10 mg/kg gavage once a day for 14 days

T2 sequence (Q12809 whole entry): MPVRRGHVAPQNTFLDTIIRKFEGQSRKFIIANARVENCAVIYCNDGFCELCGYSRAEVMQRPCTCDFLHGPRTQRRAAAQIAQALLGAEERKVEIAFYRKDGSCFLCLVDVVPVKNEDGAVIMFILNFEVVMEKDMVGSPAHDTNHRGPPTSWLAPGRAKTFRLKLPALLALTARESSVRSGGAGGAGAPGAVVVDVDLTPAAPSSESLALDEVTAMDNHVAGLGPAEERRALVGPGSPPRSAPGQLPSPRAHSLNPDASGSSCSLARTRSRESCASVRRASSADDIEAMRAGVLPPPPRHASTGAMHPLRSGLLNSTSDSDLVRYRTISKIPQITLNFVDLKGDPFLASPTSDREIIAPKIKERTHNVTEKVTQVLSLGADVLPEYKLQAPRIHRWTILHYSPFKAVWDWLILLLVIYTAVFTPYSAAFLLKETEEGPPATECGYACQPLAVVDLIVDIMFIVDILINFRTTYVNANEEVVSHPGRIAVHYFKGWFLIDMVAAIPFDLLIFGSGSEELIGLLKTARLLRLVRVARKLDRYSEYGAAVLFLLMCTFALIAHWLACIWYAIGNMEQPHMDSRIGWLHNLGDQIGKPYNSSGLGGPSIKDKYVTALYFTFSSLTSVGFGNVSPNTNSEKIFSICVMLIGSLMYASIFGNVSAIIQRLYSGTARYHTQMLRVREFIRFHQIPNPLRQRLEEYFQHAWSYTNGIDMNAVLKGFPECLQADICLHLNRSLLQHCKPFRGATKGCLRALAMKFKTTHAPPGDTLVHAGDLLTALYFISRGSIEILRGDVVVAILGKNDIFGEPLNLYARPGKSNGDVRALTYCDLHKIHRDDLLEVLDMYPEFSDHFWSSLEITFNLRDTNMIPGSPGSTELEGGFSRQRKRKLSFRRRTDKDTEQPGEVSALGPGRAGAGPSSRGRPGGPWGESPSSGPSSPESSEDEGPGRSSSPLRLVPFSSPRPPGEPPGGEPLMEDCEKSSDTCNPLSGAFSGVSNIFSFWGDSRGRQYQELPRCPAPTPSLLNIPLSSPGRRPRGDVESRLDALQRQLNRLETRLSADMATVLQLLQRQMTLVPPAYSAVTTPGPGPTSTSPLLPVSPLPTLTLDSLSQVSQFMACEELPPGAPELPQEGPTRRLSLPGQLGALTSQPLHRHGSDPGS
Sequence of TYK2 (P29597 whole entry, species assumed): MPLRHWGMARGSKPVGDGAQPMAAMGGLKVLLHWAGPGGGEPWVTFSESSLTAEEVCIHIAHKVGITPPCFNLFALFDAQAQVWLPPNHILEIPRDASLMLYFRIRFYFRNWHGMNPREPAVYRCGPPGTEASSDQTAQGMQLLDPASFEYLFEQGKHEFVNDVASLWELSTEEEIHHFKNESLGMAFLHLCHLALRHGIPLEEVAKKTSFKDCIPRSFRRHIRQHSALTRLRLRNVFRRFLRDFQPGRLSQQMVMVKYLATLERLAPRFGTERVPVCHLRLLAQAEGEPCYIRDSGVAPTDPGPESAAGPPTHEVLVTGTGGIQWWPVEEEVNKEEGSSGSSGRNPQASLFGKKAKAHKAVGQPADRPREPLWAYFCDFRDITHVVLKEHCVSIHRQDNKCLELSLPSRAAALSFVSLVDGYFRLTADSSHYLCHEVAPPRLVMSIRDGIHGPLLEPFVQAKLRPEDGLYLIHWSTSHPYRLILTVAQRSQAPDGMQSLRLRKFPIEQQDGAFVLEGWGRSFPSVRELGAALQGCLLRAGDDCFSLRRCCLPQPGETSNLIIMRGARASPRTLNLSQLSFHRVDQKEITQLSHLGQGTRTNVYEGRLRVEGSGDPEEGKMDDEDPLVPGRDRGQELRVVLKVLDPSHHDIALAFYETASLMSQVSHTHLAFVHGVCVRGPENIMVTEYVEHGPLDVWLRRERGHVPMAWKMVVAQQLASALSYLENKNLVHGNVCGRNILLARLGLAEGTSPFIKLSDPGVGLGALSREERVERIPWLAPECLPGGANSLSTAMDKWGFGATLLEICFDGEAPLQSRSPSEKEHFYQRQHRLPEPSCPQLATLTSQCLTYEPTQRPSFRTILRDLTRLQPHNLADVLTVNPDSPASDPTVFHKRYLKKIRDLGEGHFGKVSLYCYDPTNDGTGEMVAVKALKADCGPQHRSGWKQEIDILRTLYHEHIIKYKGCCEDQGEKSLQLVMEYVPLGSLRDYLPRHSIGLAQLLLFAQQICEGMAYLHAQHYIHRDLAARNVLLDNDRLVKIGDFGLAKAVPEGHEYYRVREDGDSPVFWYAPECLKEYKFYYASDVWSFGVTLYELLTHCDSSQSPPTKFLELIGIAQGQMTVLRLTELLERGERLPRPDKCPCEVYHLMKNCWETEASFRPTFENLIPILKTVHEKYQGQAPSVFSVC

SMILES: CCS(=O)(=O)N1CC(CC#N)(n2cc(-c3ccnc4[nH]ccc34)cn2)C1 [Crystalline form A, 2-(3-(4-(1H-pyrrolo[2,3-b]pyridin-4-yl)-1H-pyrazol-1-yl)-1-(ethylsulfonyl)azetidin-3-yl)acetonitrile]
- Changes in crystalline form [1, 11]: No
- Changes in crystalline form [1, 12]: No
- Changes in crystalline form ([1]; light condition for 5 days): No
- IC50 at 40 h [2]: > 50 µM
- IC50 at 40 h [3]: 33.6 µM
- IC50 [4]: 0.0228 ± 0.00403 µM
- IC50 [5]: 0.0161 ± 0.00155 µM
- Effect on mean pathological score of synovial hyperplasia/pannus (in words) ([6]; 1 mg/kg): to some extent
- Effect on mean pathological scores of joint inflammation and joint cartilage erosion (in words) ([6]; 1 mg/kg): significantly reduce
- Mean pathological score, Joint cartilage erosion (X ± SD) [6, 13]: 5.10 ± 1.52
- Mean pathological score, Joint inflammation (X ± SD) [6, 13]: 4.00 ± 1.25
- Mean pathological score, Synovial hyperplasia/pannus (X ± SD) [6, 13]: 6.90 ± 0.99
- Effect on mean pathological scores of joint inflammation, joint cartilage erosion and synovial hyperplasia/pannus (in words) ([6]; 3 mg/kg): significantly reduce
- Mean pathological score, Joint cartilage erosion (X ± SD) [6, 14]: 2.20 ± 1.93
- Mean pathological score, Joint inflammation (X ± SD) [6, 14]: 2.60 ± 1.90
- Mean pathological score, Synovial hyperplasia/pannus (X ± SD) [6, 14]: 4.80 ± 1.40
- Effect on mean pathological scores of joint inflammation, joint cartilage erosion and synovial hyperplasia/pannus (in words) ([6]; 10 mg/kg): significantly reduce
- Mean pathological score, Joint cartilage erosion (X ± SD) [6, 15]: 0.10 ± 0.32
- Mean pathological score, Joint inflammation (X ± SD) [6, 15]: 0.30 ± 0.67
- Mean pathological score, Synovial hyperplasia/pannus (X ± SD) [6, 15]: 2.20 ± 0.42
- inhibition at 2 h, 30 µM ([7]; human, probe tracer with high hERG affinity, at 30 μM, read-out: hERG inhibition rate): < 50%
- IC50 ([7]; test concentration 3, 10 and 30 μM, 25° C., 2 h): > 30 µM
- IC50 [8]: 0.123 ± 0.0183 µM
- particle fluidity [9]: good particle fluidity
- angle of repose [9]: 45 degrees
- most apparent density (bulk density) [9]: 0.43 g/mL
- IC50 at 40 h [10]: 23.1 µM

SMILES: CCS(=O)(=O)N1CC(CC#N)(n2cc(-c3ccnc4[nH]ccc34)cn2)C1 [Crystalline form B, 2-(3-(4-(1H-pyrrolo[2,3-b]pyridin-4-yl)-1H-pyrazol-1-yl)-1-(ethylsulfonyl)azetidin-3-yl)acetonitrile]
- Changes in crystalline form [1, 11]: No
- Changes in crystalline form [1, 12]: No
- Changes in crystalline form ([1]; light condition for 5 days): No
- particle fluidity [9]: good particle fluidity
- angle of repose [9]: 45 degrees
- most apparent density (bulk density) [9]: 0.26 g/mL
